# Measurements taken from patent US9040707B2, “Bicyclic thiazoles as allosteric modulators of mGluR5 receptors” (Janssen Pharmaceutica NV, priority 2009, dated 2015).
# Experiments:
# human mGluR5a receptor [1] = biological target: T1, human mGluR5a receptor (Homo sapiens, UniProt P41594); assay: Functional Assay 3: as Functional Assay 2 but clone H12H; format: cell-based; conditions: for EC50: glutamate EC20; for Emax: maximum average response at a single concentration
# T1 construct: host or cells: HEK293A (monoclones H10H and H12H)
# Experimental: HEK cells transfected with the human mGluR5a receptor (H10H cell line) were plated at 15.000 cells/well in clear-bottomed poly-D-lysine-coated assay plates (BD Falcon) in glutamate-glutamine-free growth medium and incubated overnight at 37° C. and 5% CO2. The following day, the growth medium was removed and the cells were washed with assay buffer containing 1× Hank's balanced salt solution (Invitrogen, Carlsbad, Calif.), 20 mM HEPES, 2.5 mM probenecid, pH 7.4 and left with 20 μL of this reagent. Following this step, the cells were loaded with calcium indicator dye, fluo-4 AM, to a final concentration of 2 μM and incubated for 40-45 min at 37° C. The dye solution was removed and replaced with assay buffer. Cell plates were held for 10-15 min at room temperature and were then loaded into the Functional Drug Screening System 6000 (FDSS 6000, Hamamatsu, Japan).
# After establishment of a fluorescence baseline for about 3 seconds, the compounds of the present invention were added to the cells, and the response in cells was measured. 2.3 minutes later an EC20 concentration of the mGluR5 receptor agonist glutamate was added to the cells, and the response of the cells was measured for about 1.7 minutes. All test compounds were dissolved and diluted to a concentration of 10 mM in 100% DMSO and then serially diluted into assay buffer for a 2× stock solution in 0.6% DMSO; stock compounds were then added to the assay for a final DMSO concentration of 0.3% after the first addition to the assay well. Calcium fluorescence measures were recorded as fold over basal fluorescence; raw data was then normalized to the maximal response to glutamate. Potentiation of the agonist response of the mGluR5 receptor in the present invention was observed as an increase in response to submaximal concentrations of glutamate in the presence of compound compared to the response to glutamate in the absence of compound.
# The concentration-response curves of compounds of the present invention, obtained in the presence of EC20 of mGluR5 receptor agonist glutamate to determine positive allosteric modulation, were generated using Microsoft Excel with IDBS XLfit add-ins. The raw data file containing all time points was used as the data source in the analysis template. This was saved by the FDSS as a tab-delimitted text file. Data were normalized using a static ratio function (F/F0) for each measurement of the total 350 values per well divided by each well's initial value. Data was then reduced as to peak amplitudes (Max−Initial Min) using a time range that starts approximately 1 second after the glutamate EC20 addition and continues for approximately 40 seconds. This is sufficient time to capture the peak amplitude of the cellular calcium response. Individual amplitudes were expressed as % effect by multiplying each amplitude by 100 and then dividing the product by the mean of the amplitudes derived from the glutamate ECMax-treated wells. pEC50 values for test compounds were generated by fitting the normalized values versus the log of the test compound concentration (in mol/L) using a 4 parameter logistic equation where none of the parameters were fixed. Each of the three values collected at each concentration of test compound were weighted evenly. Individual values falling outside the 95% prediction limits of the curve fit were automatically excluded from the fit. […] These two methods are in good agreement for curves with a clear plateau at the high concentration range. […] For consistency purposes across the range of potencies observed, all Emax values reported in this application are calculated using the maximum average response at a single concentration.
# Functional Assay 3 was performed under the same conditions as Functional Assay 2, except that clone H12H was used instead of clone H10H.
# The clones that were used in the primary functional assay gave undiscernable differences in this assay.
# human mGluR5 receptor = biological target: T2, human mGluR5 receptor (Homo sapiens, UniProt P41594); assay: Functional Assay 1: intracellular Ca2+ mobilization, positive allosteric modulation of glutamate EC20 response; format: cell-based; conditions: for Emax: maximum % effect relative to glutamate ECMax
# T2 construct: expressed in transfected cells; host or cells: HEK-293
# Experimental: HEK-293 cells were stable transfected with human mGluR5a cDNA in expression vector pcDNA4/TO. For Assay 1, these human mGluR5 receptor over-expressing HEK-293 cells were grown at a density of 40,000 cells/well in PDL-coated 384-well plates. The following day, cells were preloaded with the calcium-sensing dye Fluo-4 AM and various concentrations of test compound were added in the absence of exogenous glutamate to test for direct agonist activity. Shortly (2.5 min) thereafter, an EC20 equivalent of glutamate (˜0.2 μM) was added. The fluorescence signal was monitored using a Hamamatsu Functional Drug Screening System (FDSS) fluorescence plate reader following the addition of compound alone (direct agonist response) and then the further addition of an EC20 of glutamate (positive allosteric modulation response). The pEC50 was defined as the negative log of the test compound concentration which produced an increase in the glutamate EC20-mediated response that was 50% of maximum. Individual amplitudes were expressed as % effect by multiplying each amplitude by 100 and then dividing the product by the mean of the amplitudes derived from the glutamate ECMax-treated wells. Emax values reported in this application are defined as the maximum % effect obtained in a concentration-response curve.
# human mGluR5a receptor [2] = biological target: T1, human mGluR5a receptor; assay: Functional Assay 2: Ca2+ mobilization, HEK cells with human mGluR5a receptor (H10H cell line); format: cell-based; conditions: H10H cell line; for EC50: glutamate EC20; for Emax: HEK293, maximum average response at a single concentration, relative to glutamate ECMax
# [3] = human mGluR5 over-expressing HEK-293 cells, glutamate EC20 (~0.2 μM), updated value
# [4] = original value, which was updated as compound was further tested
# T1 sequence (P41594 21-1180 isoform P41594-2 limits assumed): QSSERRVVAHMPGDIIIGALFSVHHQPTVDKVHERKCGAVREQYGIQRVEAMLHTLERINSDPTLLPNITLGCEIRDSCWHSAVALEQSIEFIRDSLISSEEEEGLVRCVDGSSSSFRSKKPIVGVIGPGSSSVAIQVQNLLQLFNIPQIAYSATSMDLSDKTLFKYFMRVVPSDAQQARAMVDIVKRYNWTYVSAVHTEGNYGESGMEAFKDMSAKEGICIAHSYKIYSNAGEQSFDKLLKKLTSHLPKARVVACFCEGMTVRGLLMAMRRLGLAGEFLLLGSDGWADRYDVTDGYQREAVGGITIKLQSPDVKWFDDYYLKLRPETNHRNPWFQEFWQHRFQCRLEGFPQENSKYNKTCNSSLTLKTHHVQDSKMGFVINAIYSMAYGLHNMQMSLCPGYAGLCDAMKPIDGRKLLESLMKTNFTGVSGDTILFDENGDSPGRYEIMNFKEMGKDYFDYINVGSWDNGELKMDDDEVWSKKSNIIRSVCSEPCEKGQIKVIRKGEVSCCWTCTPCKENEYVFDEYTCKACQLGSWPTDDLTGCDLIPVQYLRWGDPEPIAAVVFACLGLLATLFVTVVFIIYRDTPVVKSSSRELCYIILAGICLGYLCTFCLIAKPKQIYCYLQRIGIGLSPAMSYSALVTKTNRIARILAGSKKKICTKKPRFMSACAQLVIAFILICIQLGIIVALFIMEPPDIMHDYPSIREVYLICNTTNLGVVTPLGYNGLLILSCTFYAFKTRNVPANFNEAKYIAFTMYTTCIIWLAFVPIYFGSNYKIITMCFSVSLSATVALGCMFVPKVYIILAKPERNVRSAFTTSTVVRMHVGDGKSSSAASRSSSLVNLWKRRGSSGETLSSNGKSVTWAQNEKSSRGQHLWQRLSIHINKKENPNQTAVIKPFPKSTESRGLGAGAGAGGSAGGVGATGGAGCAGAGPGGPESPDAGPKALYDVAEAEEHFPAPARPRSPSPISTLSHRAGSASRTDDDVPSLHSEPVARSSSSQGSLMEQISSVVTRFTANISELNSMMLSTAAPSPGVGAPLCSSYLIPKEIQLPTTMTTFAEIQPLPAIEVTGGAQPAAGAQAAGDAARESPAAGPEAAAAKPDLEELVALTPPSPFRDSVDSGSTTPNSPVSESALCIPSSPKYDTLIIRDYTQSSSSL
# T2 sequence (P41594 21-1180 isoform P41594-2 limits assumed): as above
EC50 (human mGluR5a receptor [1]),Emax (human mGluR5a receptor [1]),EC50 (human mGluR5 receptor; [3]),Emax (human mGluR5 receptor),EC50 (human mGluR5 receptor; [4]),EC50 (human mGluR5a receptor [2]),Emax (human mGluR5a receptor [2]),melting point,SMILES
–,–,692 nM,82%,741 nM,295 nM,61%,121.1 to 122.7 °C,"O=C1c2sc(OCc3cccc(F)c3)nc2CCN1c1ccc(F)cc1F [Compound 17, 5-(2,4-difluorophenyl)-2-[(3-fluorophenyl)methoxy]-6,7-dihydro-thiazolo[5,4-c]pyridin-4(5H)-one]"
–,–,617 nM,76%,513 nM,427 nM,72%,78.9 to 80.7 °C,"O=C1c2sc(OCc3ccccc3F)nc2CCN1c1ccc(F)cc1F [Compound 18, 5-(2,4-difluorophenyl)-2-[(2-fluorophenyl)methoxy]-6,7-dihydro-thiazolo[5,4-c]pyridin-4(5H)-one]"
–,–,> 30200 nM,25%,–,–,–,> 280 °C,"O=C1c2sc(OCc3ccccc3C(F)(F)F)nc2CCN1c1ccc(F)cc1F [Compound 81, 5-(2,4-difluorophenyl)-6,7-dihydro-2-[[2-(trifluoromethyl)phenyl]methoxy]-thiazolo[5,4-c]pyridin-4(5H)-one]"
–,–,> 30200 nM,19%,–,–,–,166.1 to 168.3 °C,"N#Cc1ccccc1COc1nc2c(s1)C(=O)N(c1ccc(F)cc1F)CC2 [Compound 76, 2-[[[5-(2,4-difluorophenyl)-4,5,6,7-tetrahydro-4-oxothiazolo[5,4-c]pyridin-2-yl]oxy]methyl]-benzonitrile]"
–,–,1950 nM,71%,550 nM,182 nM,67%,135 °C,"O=C1c2sc(OCc3ccccc3)nc2CCN1c1ccc(F)cc1F [Compound 12, 5-(2,4-difluorophenyl)-6,7-dihydro-2-(phenylmethoxy)-thiazolo[5,4-c]pyridin-4(5H)-one]"
–,–,> 30200 nM,21%,–,–,–,> 280 °C,"COc1ccccc1COc1nc2c(s1)C(=O)N(c1ccc(F)cc1F)CC2 [Compound 79, 5-(2,4-difluorophenyl)-6,7-dihydro-2-[(2-methoxyphenyl)methoxy]-thiazolo[5,4-c]pyridin-4(5H)-one]"
85.1 nM,63%,–,–,–,–,–,–,"O=C1c2sc(COc3cccc(F)c3)nc2CCN1c1ccc(F)cc1F [Compound 28, 5-(2,4-difluorophenyl)-2-[(3-fluorophenoxy)methyl]-6,7-dihydro-thiazolo[5,4-c]pyridin-4(5H)-one]"
–,–,> 30200 nM,32%,–,–,–,136.9 to 137.2 °C,"O=C1c2sc(OCc3ccc(F)c(F)c3)nc2CCN1c1ccc(F)cc1F [Compound 74, 5-(2,4-difluorophenyl)-2-[(3,4-difluorophenyl)methoxy]-6,7-dihydro-thiazolo[5,4-c]pyridin-4(5H)-one]"

# More lines, now with the values behind:
SMILES,EC50 (human mGluR5a receptor [1]),Emax (human mGluR5a receptor [1]),EC50 (human mGluR5 receptor; [3]),Emax (human mGluR5 receptor),EC50 (human mGluR5 receptor; [4]),EC50 (human mGluR5a receptor [2]),Emax (human mGluR5a receptor [2]),melting point
"O=C1c2sc(COc3ccccc3)nc2CCN1c1ccc(F)cc1 [Compound 9, 5-(4-fluorophenyl)-6,7-dihydro-2-(phenoxymethyl)-thiazolo[5,4-c]pyridin-4(5H)-one]",112 nM,79%,–,–,–,–,–,–
"C[C@@H](N1CCc2nc(OCc3cccc(F)c3)sc2C1=O)C(C)(C)C [Compound 77, 2-[(3-fluorophenyl)methoxy]-6,7-dihydro-5-[(1R)-1,2,2-trimethylpropyl]-thiazolo[5,4-c]pyridin-4(5H)-one]",> 30200 nM,21%,–,–,–,–,–,–
"O=C1c2sc(OCc3ccccc3)nc2CCN1Cc1cccc(F)c1 [Compound 15, 5-[(3-fluorophenyl)methyl]-6,7-dihydro-2-(phenylmethoxy)-thiazolo[5,4-c]pyridin-4(5H)-one]",–,–,3720 nM,67%,2570 nM,912 nM,59%,80.1 to 82 °C
"C[C@@H](N1CCc2nc(COc3ccccc3)sc2C1=O)C(C)(C)C [Compound 35, 6,7-dihydro-2-(phenoxymethyl)-5-[(1R)-1,2,2-trimethylpropyl]-thiazolo[5,4-c]pyridin-4(5H)-one]",794 nM,60%,–,–,–,–,–,–
"O=C1c2sc(OCc3ccccc3)nc2CCN1Cc1ccc(F)cc1 [Compound 14, 5-[(4-fluorophenyl)methyl]-6,7-dihydro-2-(phenylmethoxy)-thiazolo[5,4-c]pyridin-4(5H)-one]",–,–,5130 nM,88%,4470 nM,2240 nM,52%,95.8 to 99 °C
"O=C1c2sc(OCc3cccc(F)c3)nc2CCN1c1ccc(C(F)(F)F)cc1 [Compound 26, 2-[(3-fluorophenyl)methoxy]-6,7-dihydro-5-[4-(trifluoromethyl)phenyl]-thiazolo[5,4-c]pyridin-4(5H)-one]",–,–,214 nM,46%,–,–,–,130 to 131.5 °C
"O=C1c2sc(OCc3ccccc3)nc2CCN1Cc1ccccc1F [Compound 16, 5-[(2-fluorophenyl)methyl]-6,7-dihydro-2-(phenylmethoxy)-thiazolo[5,4-c]pyridin-4(5H)-one]",–,–,5370 nM,88%,3630 nM,1230 nM,56%,77.4 to 79.2 °C
"N#Cc1ccc(COc2nc3c(s2)C(=O)N(c2ccc(F)cc2F)CC3)cc1 [Compound 75, 4-[[[5-(2,4-difluorophenyl)-4,5,6,7-tetrahydro-4-oxothiazolo[5,4-c]pyridin-2-yl]oxy]methyl]-benzonitrile]",–,–,> 30200 nM,19%,–,–,–,180.9 to 183.1 °C
"C[C@@H](N1CCc2nc(COc3cccc(F)c3)sc2C1=O)C(C)(C)C [Compound 7, 2-[(3-fluorophenoxy)methyl]-6,7-dihydro-5-[(1R)-1,2,2-trimethylpropyl]-thiazolo[5,4-c]pyridin-4(5H)-one]",1410 nM,57%,–,–,–,–,–,87.2 to 87.8 °C
"O=C1c2sc(OCc3cccc(F)c3)nc2CCN1c1cccc(F)c1 [Compound 27, 5-(3-fluorophenyl)-2-[(3-fluorophenyl)methoxy]-6,7-dihydro-thiazolo[5,4-c]pyridin-4(5H)-one]",–,–,110 nM,57%,–,–,–,111.3 to 111.9 °C
"O=C1c2sc(OCc3cccc(F)c3)nc2CCN1c1cccc(C(F)(F)F)c1 [Compound 30, 2-[(3-fluorophenyl)methoxy]-6,7-dihydro-5-[3-(trifluoromethyl)phenyl]-thiazolo[5,4-c]pyridin-4(5H)-one]",933 nM,58%,–,–,–,–,–,108.2 to 108.9 °C
"O=C1c2sc(COc3ccc(Cl)cc3)nc2CCN1c1ccc(F)cc1 [Compound 60, 2-[(4-chlorophenoxy)methyl]-5-(4-fluorophenyl)-6,7-dihydro-thiazolo[5,4-c]pyridin-4(5H)-one]",–,–,> 30200 nM,28%,–,–,–,186.9 °C
